Publication PMC2692205 (Chembiochem : a European journal of chemical biology, 2008)

Target: SaDUF62 (Salinispora arenicola, UniProt A8M783)
Assay: biochemical

SaDUF62, sequence (A8M783 whole entry): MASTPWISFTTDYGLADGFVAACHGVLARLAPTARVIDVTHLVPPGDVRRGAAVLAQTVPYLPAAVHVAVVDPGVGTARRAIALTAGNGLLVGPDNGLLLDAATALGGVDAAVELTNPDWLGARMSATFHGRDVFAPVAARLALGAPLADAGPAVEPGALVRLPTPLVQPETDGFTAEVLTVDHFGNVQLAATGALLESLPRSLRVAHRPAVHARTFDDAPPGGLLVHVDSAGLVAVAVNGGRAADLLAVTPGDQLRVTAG

Cl [chloride] was tested, and the Ki was 1000 µM.
